Test results: ChEMBL document CHEMBL4014321, “Discovery of Pyrazolo[1,5-a]pyrimidine B-Cell Lymphoma 6 (BCL6) Binders and Optimization to High Affinity Macrocyclic Inhibitors” (J Med Chem, 2017)
Converted amounts (≈) assume the structure as drawn.

Assays:
OCI-Ly1 = test: Antiproliferative activity against BCL6 dependent human OCI-LY1 cells after 3 days by CellTiter-Glo assay; format: functional; conditions: OCI-Ly1, 72 h
[1] = Inhibition of human CK2 protein
OCI-Ly10 = test: Antiproliferative activity against BCL6 dependent human OCI-LY10 cells after 3 days by CellTiter-Glo assay; format: functional; conditions: OCI-Ly10, 72 h
KARPAS-422 = test: Antiproliferative activity against BCL6 […] human KARPAS422 cells after 3 days by CellTiter-Glo assay; format: functional; conditions: KARPAS-422, 72 h
TMD8 = test: Antiproliferative activity against BCL6 dependent human TMD8 cells after 3 days by CellTiter-Glo assay; format: functional; conditions: TMD8, 72 h
OCI-Ly3 = test: Antiproliferative activity against BCL6 dependent human OCI-LY3 cells after 3 days by CellTiter-Glo assay; format: functional; conditions: OCI-Ly3, 72 h
U2932 = test: Antiproliferative activity against BCL6 dependent human U2932 cells after 3 days by CellTiter-Glo assay; format: functional; conditions: U2932, 72 h
OCI-LY19 = test: Antiproliferative activity against BCL6 independent human OCI-LY19 cells after 3 days by CellTiter-Glo assay; format: functional; conditions: OCI-LY19, 72 h
SU-DHL-2 = test: Antiproliferative activity against BCL6 dependent human SU-DHL-2 cells after 3 days by CellTiter-Glo assay; format: functional; conditions: SU-DHL-2, 72 h
AMO1 = test: Antiproliferative activity against BCL6 dependent human AMO1 cells after 3 days by CellTiter-Glo assay; format: functional; conditions: AMO1, 72 h
SUD4 = test: Antiproliferative activity against BCL6 dependent human SUDHL4 cells after 3 days by CellTiter-Glo assay; format: functional; conditions: SU-DHL-4, 72 h
[2] = target: T1, B-cell lymphoma 6 protein (Homo sapiens, UniProt P41182, C67R/C84N/C8Q); test: Inhibition of SMRT2 H1426W mutant peptide binding to N-terminal His6-tagged human BCL6 BTB domain C8Q/C67R/C84N mutant expressed in Escherichia coli BL21 (DE3) preincubated for 30 mins followed by SMRT2 H1426W mutant peptide addition measured after 60 mins by time-resolved fluorescence resonance energy transfer assay
[3] = target: T1, B-cell lymphoma 6 protein; test: Binding affinity to N-terminal His6-tagged human BCL6 BTB domain C8Q/C67R/C84N mutant expressed in Escherichia coli BL21 (DE3) by surface plasmon resonance spectrometry
[4] = target: 5-hydroxytryptamine receptor 1B (Homo sapiens, UniProt P28222); test: Agonist activity at 5-HT1B receptor (unknown origin)
Chain of 5-hydroxytryptamine receptor 1B (P28222 whole entry): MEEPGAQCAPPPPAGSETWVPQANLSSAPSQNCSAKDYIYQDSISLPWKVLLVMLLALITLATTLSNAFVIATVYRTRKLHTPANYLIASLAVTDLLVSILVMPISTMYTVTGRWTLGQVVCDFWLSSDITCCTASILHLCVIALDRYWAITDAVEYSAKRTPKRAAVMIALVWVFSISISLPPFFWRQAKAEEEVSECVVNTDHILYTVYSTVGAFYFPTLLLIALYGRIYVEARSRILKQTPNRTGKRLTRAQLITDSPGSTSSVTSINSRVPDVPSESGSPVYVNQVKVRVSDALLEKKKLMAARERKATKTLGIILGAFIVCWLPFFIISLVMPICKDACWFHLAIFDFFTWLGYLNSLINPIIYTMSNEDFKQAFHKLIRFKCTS

[5] = Binding affinity to GABA receptor (unknown origin) by radioligand displacement assay; design: species or system Homo sapiens
Homo sapiens [6] = species: Homo sapiens; test: Selectivity ratio of IC50 for human CK2 protein to IC50 for N-terminal His6-tagged human BCL6 BTB domain C8Q/C67R/C84N mutant
Homo sapiens [7] = species: Homo sapiens; test: Inhibition of human CK2 protein at 1 uM relative to control
[8] = Octanol-buffer partition co-efficient, log D of the compound at pH 7.4 after 30 mins by shake flask method; format: physicochemical
[9] = Apparent permeability in human Caco2 cells; format: ADME, cell-based; conditions: Caco-2
[10] = Aqueous solubility of the compound at pH 7.4 after 24 hrs by LC-UV method; format: physicochemical

SMILES	GI50 (OCI-Ly1)	IC50 [1]	GI50 (OCI-Ly10)	GI50 (KARPAS-422)	GI50 (TMD8)	GI50 (OCI-Ly3)	GI50 (U2932)	GI50 (OCI-LY19)	GI50 (SU-DHL-2)	GI50 (AMO1)	GI50 (SUD4)	IC50 [2]	Kd [3]	EC50 [4]	Ki [5]	Ratio IC50 (Homo sapiens [6])	inhibition (Homo sapiens [7])	logD at 0.5 h [8]	Papp [9]	solubility at 24 h [10]
COc1cccc(CN2C(=O)CCc3cc4cc(c32)OC/C=C/CO[C@H]2C[C@@H](CO)N(C2)c2cc(n3ncc(C#N)c3n2)N4)c1	3.16 µM	1200 nM	3.98 µM	5.01 µM	3.98 µM	6.31 µM	3.98 µM	5.01 µM	2.51 µM	10 µM	6.31 µM									
O=C(O)CCN1C(=O)/C(=C2/C(=O)Nc3ccc(Cl)cc32)SC1=S	20 µM	690 nM	12.6 µM	12.6 µM	10 µM	20 µM	12.6 µM	10 µM	12.6 µM	20 µM	10 µM									
N#Cc1cnn2c(Nc3ccccc3)cc(N3CCCC3)nc12												> 100000 nM								
O=C1CCc2cc3cc(c2N1CC1CC(F)(F)C1)OC/C=C/CO[C@H]1C[C@@H](CO)N(C1)c1cc(n2ncc(Cl)c2n1)N3	7.94 µM	2100 nM	7.94 µM	10 µM	10 µM	12.6 µM	6.31 µM	6.31 µM	7.94 µM	25.1 µM	10 µM									
COc1cccc(CN2C(=O)CCc3cc4cc(c32)OC/C=C/CO[C@H]2C[C@@H](CO)N(C2)c2cc(n3ncc(Cl)c3n2)N4)c1	6.31 µM	> 10000 nM	6.31 µM	25.1 µM	20 µM	> 31.6 µM	15.8 µM	10 µM	6.31 µM	15.8 µM	31.6 µM									
N#Cc1cnn2c3cc(nc12)N1C[C@H](C[C@H]1CO)OCCCCOc1cc(cc2c1NC(=O)CC2)N3	25.1 µM	400 nM	10 µM	20 µM	15.8 µM	12.6 µM	15.8 µM	15.8 µM	12.6 µM	20 µM	25.1 µM									
O=C(O)C[C@@H]1C[C@H]2CN1c1cc(n3ncc(Cl)c3n1)Nc1cc3c(c(c1)OC/C=C/CO2)N(CC1CC(F)(F)C1)C(=O)CC3	15.8 µM	160 nM	15.8 µM	20 µM	15.8 µM	20 µM	15.8 µM	10 µM	20 µM	31.6 µM	15.8 µM									
CCNc1cc(-c2cccnc2)nc2ccnn12													689000 nM							
O=C1CCc2cc3cc(c2N1Cc1ccccc1)OC/C=C/CO[C@H]1C[C@@H](CO)N(C1)c1cc(n2ncc(Cl)c2n1)N3	12.6 µM	> 10000 nM	10 µM	25.1 µM	10 µM	12.6 µM	7.94 µM	10 µM	10 µM	25.1 µM	15.8 µM			570 nM	250 nM					
O=C1CCc2cc3cc(c2N1CCCN1CCOCC1)OC/C=C/CO[C@H]1C[C@@H](CO)N(C1)c1cc(n2ncc(Cl)c2n1)N3	10 µM	5900 nM	7.94 µM	12.6 µM	10 µM	10 µM	10 µM	7.94 µM	10 µM	12.6 µM	12.6 µM									
N#Cc1cnn2c(NC3CC3)ccnc12												> 99000 nM	319000 nM							
N#Cc1cnn2c3cc(nc12)N1C[C@H](C[C@H]1CO)OC/C=C/COc1cc(cc2c1NC(=O)CC2)N3	10 µM		5.01 µM	7.94 µM	7.94 µM	3.98 µM	6.31 µM	6.31 µM	3.16 µM	15.8 µM	7.94 µM	2.9 nM	6.5 nM			220	> 60%	2.2		
N#Cc1cnn2c(Nc3ccc4c(c3)CCC(=O)N4)cc(N3CCC[C@H]3CO)nc12												370 nM	500 nM					2.3		
O=C1CCc2cc3cc(c2N1)OCCCCO[C@H]1C[C@@H](CO)N(C1)c1cc(n2ncc(Cl)c2n1)N3	6.31 µM	1400 nM	2.51 µM	5.01 µM	3.16 µM	3.16 µM	5.01 µM	1.58 µM	3.98 µM	3.98 µM	10 µM									
O=C1CCc2cc3cc(c2N1CC1CC1)OC/C=C/CO[C@H]1C[C@@H](CO)N(C1)c1cc(n2ncc(Cl)c2n1)N3	> 31.6 µM	2200 nM	20 µM	> 31.6 µM	25.1 µM	> 31.6 µM	10 µM	15.8 µM	20 µM	> 31.6 µM	> 31.6 µM									
O=C1CCc2cc3cc(c2N1)OCCCCO[C@H]1C[C@@H](CO)N(C1)c1cc(n2nccc2n1)N3	12.6 µM	> 10000 nM	12.6 µM	12.6 µM	10 µM	15.8 µM	15.8 µM	12.6 µM	10 µM	12.6 µM	20 µM									
O=C1CCc2cc3cc(c2N1)OC/C=C/CO[C@H]1C[C@@H](CO)N(C1)c1cc(n2ncc(Cl)c2n1)N3	3.98 µM	7300 nM	1.58 µM	5.01 µM	2.51 µM	2 µM	2.51 µM	2 µM	3.98 µM	3.16 µM	6.31 µM								46 ×10⁻⁶ cm/s	31 µM (≈ 15.4 µg/mL)
O=C1CCc2cc3cc(c2N1Cc1ccncc1)OC/C=C/CO[C@H]1C[C@@H](CO)N(C1)c1cc(n2ncc(Cl)c2n1)N3	10 µM	> 10000 nM	10 µM	12.6 µM	10 µM	12.6 µM	10 µM	12.6 µM	7.94 µM	20 µM	10 µM									
N#Cc1cnn2c3cc(nc12)N1CC[C@@H](C1)OCCCCOc1cc(cc2c1NC(=O)CC2)N3	7.94 µM		7.94 µM	7.94 µM	5.01 µM	3.98 µM	10 µM	7.94 µM	10 µM	10 µM	10 µM									
N#Cc1cnn2c(Nc3ccc4c(c3)CCC(=O)N4)cc(N3CCC[C@H]3CC(=O)O)nc12												350 nM	1100 nM							
Cc1ccccc1CN1C(=O)CCc2cc3cc(c21)OC/C=C/CO[C@H]1C[C@@H](CO)N(C1)c1cc(n2ncc(Cl)c2n1)N3	10 µM	> 10000 nM	10 µM	> 31.6 µM	20 µM	15.8 µM	10 µM	10 µM	6.31 µM	25.1 µM	6.31 µM									
CN1C(=O)CCc2cc3cc(c21)OC/C=C/CO[C@H]1C[C@@H](CO)N(C1)c1cc(n2ncc(Cl)c2n1)N3	6.31 µM	7000 nM	6.31 µM	5.01 µM	3.98 µM	6.31 µM	5.01 µM	5.01 µM	3.16 µM	5.01 µM	6.31 µM									
N#Cc1cnn2c(NC3CC3)cc(N3CCCC3)nc12												> 99000 nM								
CC(=O)Nc1ccc(-c2cc(NC3CC3)n3ncc(C#N)c3n2)cc1N1CC[C@@H](N(C)C)C1		12 nM																		
N#Cc1cnn2c(Nc3ccc4c(c3)CCC(=O)N4)cc(N3CCCC3)nc12												2900 nM								
N#Cc1cnn2c(Nc3ccc4c(c3)CCC(=O)N4)cc(N3CCC[C@@H]3CO)nc12												590 nM								
Cc1ccc(CN2C(=O)CCc3cc4cc(c32)OC/C=C/CO[C@H]2C[C@@H](CO)N(C2)c2cc(n3ncc(Cl)c3n2)N4)cc1	7.94 µM	> 10000 nM	12.6 µM	> 31.6 µM	15.8 µM	15.8 µM	10 µM	10 µM	6.31 µM	20 µM	20 µM									
